Test results reported in the supplement of paper PMC10307832.

Assays:
Experiment in all cases: relative viability (nuclei count vs DMSO), 5 days (fraction); higher = more cells survive
Omipalisib = compound: COc1ncc(-c2ccc3nccc(-c4ccnnc4)c3c2)cc1NS(=O)(=O)c1ccc(F)cc1F [Omipalisib]
How it was run: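 After an overnight hold at 37 °C, lung cancer cell lines in 1536-well plates were pinned with five library-drug doses (not always all listed), each √10 from the next, on vehicle-anchored plates. The cells stayed 5 days without fresh medium, then a one-step fix, permeabilisation and Hoechst stain preceded 4× imaging and MetaXpress nuclear counts. A plate passed only with control CV under 25% and at least one doubling. Viability is the median, over plates, of treated-well nuclei relative to vehicle-well nuclei.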

Omipalisib + Navitoclax = compound: COc1ncc(-c2ccc3nccc(-c4ccnnc4)c3c2)cc1NS(=O)(=O)c1ccc(F)cc1F [Omipalisib] + CC1(C)CCC(c2ccc(Cl)cc2)=C(CN2CCN(c3ccc(C(=O)NS(=O)(=O)c4ccc(N[C@H](CCN5CCOCC5)CSc5ccccc5)c(S(=O)(=O)C(F)(F)F)c4)cc3)CC2)C1 [Navitoclax] (partner 0.5 µM)
How it was run: (§1)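 A single step with final 0.05% Triton X-100, 1% formaldehyde and 1 ug/ml Hoechst fixed the cells and stained nuclei 5 days after treatment. Lung cancer cell lines in 1536-well plates had been treated by pin tool the day after seeding with one drug alone or a fixed anchor-drug dose plus five library-drug doses (not always all listed) in √10 steps, and nuclei were counted on 4× images. Relative viability is the ratio of nuclei in treated wells to nuclei in vehicle wells, taken as the median of duplicate plates.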

Omipalisib + Foretinib = compound: COc1ncc(-c2ccc3nccc(-c4ccnnc4)c3c2)cc1NS(=O)(=O)c1ccc(F)cc1F [Omipalisib] + COc1cc2c(Oc3ccc(NC(=O)C4(C(=O)Nc5ccc(F)cc5)CC4)cc3F)ccnc2cc1OCCCN1CCOCC1 [Foretinib] (partner 0.25 µM)
How it was run: as §1

Omipalisib + Lapatinib = compound: COc1ncc(-c2ccc3nccc(-c4ccnnc4)c3c2)cc1NS(=O)(=O)c1ccc(F)cc1F [Omipalisib] + CS(=O)(=O)CCNCc1ccc(-c2ccc3ncnc(Nc4ccc(OCc5cccc(F)c5)c(Cl)c4)c3c2)o1 [Lapatinib] (partner 2 µM)
How it was run: as §1

Omipalisib + Pictilisib = compound: COc1ncc(-c2ccc3nccc(-c4ccnnc4)c3c2)cc1NS(=O)(=O)c1ccc(F)cc1F [Omipalisib] + CS(=O)(=O)N1CCN(Cc2cc3nc(-c4cccc5[nH]ncc45)nc(N4CCOCC4)c3s2)CC1 [Pictilisib] (partner 1 µM)
How it was run: as §1

Omipalisib + Crizotinib = compound: COc1ncc(-c2ccc3nccc(-c4ccnnc4)c3c2)cc1NS(=O)(=O)c1ccc(F)cc1F [Omipalisib] + C[C@@H](Oc1cc(-c2cnn(C3CCNCC3)c2)cnc1N)c1c(Cl)ccc(F)c1Cl [Crizotinib] (partner 1 µM)
How it was run: as §1

Omipalisib + Linsitinib = compound: COc1ncc(-c2ccc3nccc(-c4ccnnc4)c3c2)cc1NS(=O)(=O)c1ccc(F)cc1F [Omipalisib] + C[C@]1(O)C[C@@H](c2nc(-c3ccc4ccc(-c5ccccc5)nc4c3)c3c(N)nccn32)C1 [Linsitinib] (partner 1 µM)
How it was run: as §1

Omipalisib + Alpelisib = compound: COc1ncc(-c2ccc3nccc(-c4ccnnc4)c3c2)cc1NS(=O)(=O)c1ccc(F)cc1F [Omipalisib] + Cc1nc(NC(=O)N2CCC[C@H]2C(N)=O)sc1-c1ccnc(C(C)(C)C(F)(F)F)c1 [Alpelisib] (partner 2 µM)
How it was run: as §1

Omipalisib + Phenformin = compound: COc1ncc(-c2ccc3nccc(-c4ccnnc4)c3c2)cc1NS(=O)(=O)c1ccc(F)cc1F [Omipalisib] + N=C(N)NC(=N)NCCc1ccccc1 [Phenformin] (partner 250 µM)
How it was run: as §1

Omipalisib + Decitabine = compound: COc1ncc(-c2ccc3nccc(-c4ccnnc4)c3c2)cc1NS(=O)(=O)c1ccc(F)cc1F [Omipalisib] + Nc1ncn([C@H]2C[C@H](O)[C@@H](CO)O2)c(=O)n1 [Decitabine] (partner 2 µM)
How it was run: as §1

Omipalisib + Olaparib = compound: COc1ncc(-c2ccc3nccc(-c4ccnnc4)c3c2)cc1NS(=O)(=O)c1ccc(F)cc1F [Omipalisib] + O=C(c1cc(Cc2n[nH]c(=O)c3ccccc23)ccc1F)N1CCN(C(=O)C2CC2)CC1 [Olaparib] (partner 8 µM)
How it was run: as §1

Omipalisib + Bortezomib = compound: COc1ncc(-c2ccc3nccc(-c4ccnnc4)c3c2)cc1NS(=O)(=O)c1ccc(F)cc1F [Omipalisib] + CC(C)C[C@H](NC(=O)[C@H](Cc1ccccc1)NC(=O)c1cnccn1)B(O)O [Bortezomib] (partner 0.002 µM)
How it was run: as §1

Cell Line | relative viability (Omipalisib; 0.0003 µM) | relative viability (Omipalisib; 0.003 µM) | relative viability (Omipalisib; 0.03 µM) | relative viability (Omipalisib + Navitoclax; first compound 0.0003 µM) | relative viability (Omipalisib + Navitoclax; first compound 0.003 µM) | relative viability (Omipalisib + Navitoclax; first compound 0.03 µM) | relative viability (Omipalisib + Foretinib; first compound 0.0003 µM) | relative viability (Omipalisib + Foretinib; first compound 0.003 µM) | relative viability (Omipalisib + Foretinib; first compound 0.03 µM) | relative viability (Omipalisib + Lapatinib; first compound 0.0003 µM) | relative viability (Omipalisib + Lapatinib; first compound 0.003 µM) | relative viability (Omipalisib + Lapatinib; first compound 0.03 µM) | relative viability (Omipalisib + Pictilisib; first compound 0.0003 µM) | relative viability (Omipalisib + Pictilisib; first compound 0.003 µM) | relative viability (Omipalisib + Pictilisib; first compound 0.03 µM) | relative viability (Omipalisib + Crizotinib; first compound 0.0003 µM) | relative viability (Omipalisib + Crizotinib; first compound 0.003 µM) | relative viability (Omipalisib + Crizotinib; first compound 0.03 µM) | relative viability (Omipalisib + Linsitinib; first compound 0.0003 µM) | relative viability (Omipalisib + Linsitinib; first compound 0.003 µM) | relative viability (Omipalisib + Linsitinib; first compound 0.03 µM) | relative viability (Omipalisib + Alpelisib; first compound 0.0003 µM) | relative viability (Omipalisib + Alpelisib; first compound 0.003 µM) | relative viability (Omipalisib + Alpelisib; first compound 0.03 µM) | relative viability (Omipalisib + Phenformin; first compound 0.0003 µM) | relative viability (Omipalisib + Phenformin; first compound 0.003 µM) | relative viability (Omipalisib + Phenformin; first compound 0.03 µM) | relative viability (Omipalisib + Decitabine; first compound 0.0003 µM) | relative viability (Omipalisib + Decitabine; first compound 0.003 µM) | relative viability (Omipalisib + Decitabine; first compound 0.03 µM) | relative viability (Omipalisib + Olaparib; first compound 0.0003 µM) | relative viability (Omipalisib + Olaparib; first compound 0.003 µM) | relative viability (Omipalisib + Olaparib; first compound 0.03 µM) | relative viability (Omipalisib + Bortezomib; first compound 0.0003 µM) | relative viability (Omipalisib + Bortezomib; first compound 0.003 µM) | relative viability (Omipalisib + Bortezomib; first compound 0.03 µM)
A549 | 0.923 | 0.625 | 0.323 | 1.07 | 0.91 | 0.437 | 0.892 | 0.838 | 0.319 | 0.912 | 0.715 | 0.227 | 0.457 | 0.454 | 0.254 | 0.64 | 0.531 | 0.139 | 0.438 | 0.421 | 0.218 | 0.665 | 0.55 | 0.179 | 0.157 | 0.113 | 0.0802 | 0.304 | 0.224 | 0.176 | 0.206 | 0.174 | 0.0441 | – | – | –
Calu-6 | 1.09 | 0.986 | 0.861 | 0.882 | 0.848 | 0.452 | 0.894 | 0.844 | 0.754 | 1.05 | 1 | 0.795 | 0.996 | 0.879 | 0.775 | 0.904 | 0.813 | 0.681 | 0.842 | 0.931 | 0.815 | 0.889 | 0.864 | 0.755 | – | – | – | – | – | – | 0.658 | 0.625 | 0.542 | 0.982 | 0.951 | 0.865
EBC-1 | 0.957 | 0.821 | 0.325 | 0.337 | 0.243 | 0.137 | 0.114 | 0.102 | 0.0896 | 0.211 | 0.216 | 0.202 | 0.428 | 0.395 | 0.191 | 0.218 | 0.183 | 0.212 | 0.822 | 0.521 | 0.405 | 0.906 | 0.692 | 0.259 | – | – | – | – | – | – | 0.67 | 0.57 | 0.193 | 0.605 | 0.549 | 0.263
